In US7781453B2, “Aminopyridine-derivatives” (Altana Pharma AG, priority 2003, dated 2010) one finds melting point data, which are given here for 17 compounds.

As to `Cc1cc(N)nc(CCc2nc3cc(-c4ccc(S(=O)(=O)N5CCCC5)cc4)cnc3[nH]2)c1` [compound 18, 4-Methyl-6-(2-{6-[4-(pyrrolidine-1-sulfonyl)-phenyl]-3H-imidazo[4,5-b]pyridin-2-yl}-ethyl)-pyridin-2-ylamine], the melting point worked out at 171 °C.

Compound `Cc1cc(N)nc(CCc2nc3cc(-c4ccc(S(=O)(=O)N5CCCCC5)cc4)cnc3[nH]2)c1` [compound 19, 4-Methyl-6-(2-{6-[4-(piperidine-1-sulfonyl)-phenyl]-3H-imidazo[4,5-b]pyridin-2-yl}-ethyl)-pyridin-2-ylamine] came in with a melting point of 233 °C.

Turning to `Cc1cc(N)nc(CCc2nc3cc(-c4cccc(O)c4)cnc3[nH]2)c1` [compound 16, 3-{2-[2-(6-Amino-4-methyl-pyridin-2-yl)-ethyl]-3H-imidazo[4,5-b]pyridin-6-yl}-phenol], the melting point was found to be 162 °C. Next, `Cc1cc(N)nc(CCc2nc3cccnc3[nH]2)c1.Cl`: 136 °C; `Cc1ccc(-c2cnc3[nH]c(CCc4cc(C)cc(N)n4)nc3c2)cc1.Cl`: 186 °C; `Cc1cc(N)nc(CC(C)c2nc3cccnc3[nH]2)c1` (racemic) [compound 2, (R,S)-2-[3-(2-Amino-4-methylpyridin-6-yl)prop-2-yl]-3H-imidazo[4,5-b]pyridine]: 48 °C. The compound `Cc1cc(N)nc(CCc2nc3cc(-c4ccc(S(=O)(=O)N5CCC5)cc4)cnc3[nH]2)c1` [compound 17, 6-(2-{6-[4-(Azetidine-1-sulfonyl)-phenyl]-3H-imidazo[4,5-b]pyridin-2-yl}-ethyl)-4-methyl-pyridin-2-ylamine] came in with a melting point of 168 °C. The compound `CC(=O)O.Cc1cc(N)nc(CCc2nc3cccnc3[nH]2)c1` gave a melting point of 54 °C.

Compound `Cc1cc(N)nc(CCc2nc3cc(-c4ccc(Cl)cc4)cnc3[nH]2)c1.Cl` yielded a melting point of 228 to 230 °C. To `Cc1cc(N)nc(CCc2nc3cc(-c4ccc(OCc5ccccc5)cc4)cnc3[nH]2)c1` [compound 15, 6-{2-[6-(4-Benzyloxy-phenyl)-3H-imidazo[4,5-b]pyridin-2-yl]-ethyl}-4-methyl-pyridin-2-ylamine] belongs 225 °C; to `Cc1cc(N)nc(CCc2nc3cc(-c4ccc(C#N)cc4)cnc3[nH]2)c1` [compound 6, 2-[2-(2-Amino-4-methylpyridin-6-yl)ethyl]-6-(4-cyano-phenyl)-3H-imidazo[4,5-b]pyridine], 218 °C. `Cc1cc(N)nc(CCc2nc3cc(Br)cnc3[nH]2)c1` [compound 4, 2-[2-(2-Amino-4-methylpyridin-6-yl)ethyl]-6-bromo-3H-imidazo[4,5-b]pyridine] returned a melting point of 216 °C.

For the compound `Cc1cc(N)nc(CCc2nc3cc(-c4ccc(S(=O)(=O)N5CCN(C)CC5)cc4)cnc3[nH]2)c1` [compound 21, 4-Methyl-6-(2-{6-[4-(4-methyl-piperazine-1-sulfonyl)-phenyl]-3H-imidazo[4,5-b]pyridin-2-yl}-ethyl)-pyridin-2-ylamine], the melting point stood at 135 °C. For `Cc1cc(N)nc(CCc2nc3cc(-c4cccc(OCc5ccccc5)c4)cnc3[nH]2)c1` [compound 13, 6-{2-[6-(3-Benzyloxy-phenyl)-3H-imidazo[4,5-b]pyridin-2-yl]-ethyl}-4-methyl-pyridin-2-ylamine], the melting point was 181 °C. Turning to `Cc1cc(N)nc(CCc2nc3cccnc3[nH]2)c1` [compound 1, 2-[2-(2-Amino-4-methylpyridin-6-yl)ethyl]-3H-imidazo[4,5-b]pyridine], the melting point was 45 to 47 °C.

For `Cc1cc(N)nc(CCc2nc3cc(-c4ccccc4)cnc3[nH]2)c1` [compound 5, 2-[2-(2-Amino-4-methylpyridin-6-yl)ethyl]-6-phenyl-3H-imidazo[4,5-b]pyridine], the melting point came out at 230 °C. Take `Cc1cc(N)nc(CCc2nc3cc(-c4cc(Cl)cc(Cl)c4)cnc3[nH]2)c1` [compound 14, 6-{2-[6-(3,5-Dichloro-phenyl)-3H-imidazo[4,5-b]pyridin-2-yl]-ethyl}-4-methyl-pyridin-2-ylamine]: the melting point came out at 224 °C.

Broadly, the melting point is the temperature of the solid-liquid transition.
